pEC50: −log10 of the molar value.
These compounds were tested on Tacaribe virus (TRVL 11573) (assay: microbe, parasite or virus in culture). Conditions: Mammarenavirus tacaribeense, Vero, read-out: Tacaribe EC50.
Type: cell-based

| SMILES | pEC50 |
| --- | --- |
| CC(NC(=O)NNS(=O)(=O)c1ccc(-c2ccccc2)cc1)(C(F)(F)F)C(F)(F)F [Example 1] | > 6.30 |
| CC(C)(C)c1ccc(S(=O)(=O)NNC(=O)NC(C)(C(F)(F)F)C(F)(F)F)cc1 [Example 2] | > 6.30 |
| CN1CCOc2cc(S(=O)(=O)NNC(=O)NC(C)(C(F)(F)F)C(F)(F)F)ccc21 [Example 3, N-2-(1,1,1,3,3,3-Hexafluoro-2-methylpropyl)-2-[7-(4-methyl-3,4-dihydro-2H-benzo[1,4]oxazinyl)sulfonyl] hydrazine-1-carboxamide] | > 6.30 |
| CN(C)c1cccc2c(S(=O)(=O)NNC(=O)NC(C)(C(F)(F)F)C(F)(F)F)cccc12 [Example 4, N-2-(1,1,1,3,3,3-Hexafluoro-2-methylpropyl)-2-[5-(1-dimethylamino-naphthyl)sulfonyl]hydrazine-1-carboxamide] | > 6.30 |
| Cc1cc(C)c(S(=O)(=O)NNC(=O)NC(C)(C(F)(F)F)C(F)(F)F)c(C)c1 [Example 5, N-2-(1,1,1,3,3,3-Hexafluoro-2-methylpropyl)-2-[(2,4,6-trimethylphenyl)sulfonyl)hydrazine-1-carboxamide] | > 6.30 |
| COc1ccc(Cl)cc1S(=O)(=O)NNC(=O)NC(C)(C(F)(F)F)C(F)(F)F [Example 6, N-2-(1,1,1,3,3,3-Hexafluoro-2-methylpropyl)-2-[(3-chloro-6-methoxyphenyl)sulfonyl]hydrazine-1-carboxamide] | > 6.30 |
| COc1ccc(OC)c(S(=O)(=O)NNC(=O)NC(C)(C(F)(F)F)C(F)(F)F)c1 [Example 7, N-2-(1,1,1,3,3,3-Hexafluoro-2 methylpropyl)-2-[(3,6-dimethoxyphenyl)sulfonyl] hydrazine-1-carboxamide] | > 6.30 |
| CC(NC(=O)NNS(=O)(=O)c1ccc(-c2csnn2)cc1)(C(F)(F)F)C(F)(F)F [Example 8, N-2-(1,1,1,3,3,3-Hexafluoro-2-methylpropyl)-2-[(4-(4-[1,2,3]thiadiazolyl)phenyl)sulfonyl] hydrazine-1-carboxamide] | > 6.30 |
| CC(NC(=O)NNS(=O)(=O)c1cccc(Br)c1)(C(F)(F)F)C(F)(F)F [Example 9, N-2-(1,1,1,3,3,3-Hexafluoro-2-methylpropyl)-2-[(3-bromophenyl)sulfonyl)hydrazine-1-carboxamide] | > 6.30 |
| CC(NC(=O)NNS(=O)(=O)c1ccc(Br)cc1)(C(F)(F)F)C(F)(F)F [Example 10, N-2-(1,1,1,3,3,3-Hexafluoro-2-methylpropyl)-2-[(4-bromophenyl)sulfonyl]hydrazine-1-carboxamide] | > 6.30 |
| Cc1ccc(S(=O)(=O)NNC(=O)NC(C)(C(F)(F)F)C(F)(F)F)cc1 [Example 11, N-2-(1,1,1,3,3,3-Hexafluoro-2-methylpropyl)-2-[(4-methylphenyl)sulfonyl]hydrazine-1-carboxamide] | > 6.30 |
| COc1ccc(S(=O)(=O)NNC(=O)NC(C)(C(F)(F)F)C(F)(F)F)cc1 [Example 12, N-2-(1,1,1,3,3,3-Hexafluoro-2-methylpropyl)-2-[(4-methylphenyl)sulfonyl]hydrazine-1-carboxamide] | > 6.30 |
| CC(NC(=O)NNS(=O)(=O)c1ccc(OC(F)F)cc1)(C(F)(F)F)C(F)(F)F [Example 13, N-2-(1,1,1,3,3,3-Hexafluoro-2-methylpropyl)-2-[(4-difluoromethoxyphenyl)sulfonyl] hydrazine-1-carboxamide] | > 6.30 |
| CC(NC(=O)NNS(=O)(=O)c1ccc(Cl)c(F)c1)(C(F)(F)F)C(F)(F)F [Example 14, N-2-(1,1,1,3,3,3-Hexafluoro-2-methylpropyl)-2-[(3-fluoro-4-chloro-phenyl)sulfonyl]hydrazine-1-carboxamide] | 6.00 to 6.30 |
| CC(NC(=O)NNS(=O)(=O)c1ccc(OC(F)(F)F)cc1)(C(F)(F)F)C(F)(F)F [Example 15, N-2-(1,1,1,3,3,3-Hexafluoro-2-methylpropyl)-2-[(4-trifluoromethoxyphenyl)sulfonyl] hydrazine-1-carboxamide] | 6.00 to 6.30 |
| CC(NC(=O)NNS(=O)(=O)c1ccc(F)cc1)(C(F)(F)F)C(F)(F)F [Example 16, N-2-(1,1,1,3,3,3-Hexafluoro-2-methylpropyl)-2-[(4-fluoro-phenyl)sulfonyl]hydrazine-1-carboxamide] | 6.00 to 6.30 |
| COc1cccc(S(=O)(=O)NNC(=O)NC(C)(C(F)(F)F)C(F)(F)F)c1 [Example 17, N-2-(1,1,1,3,3,3-Hexafluoro-2-methylpropyl)-2-[(3-methoxyphenyl)sulfonyl]hydrazine-1-carboxamide] | 6.00 to 6.30 |
| Cc1ccccc1S(=O)(=O)NNC(=O)NC(C)(C(F)(F)F)C(F)(F)F [Example 18, N-2-(1,1,1,3,3,3-Hexafluoro-2-methylpropyl)-2-[(2-methoxyphenyl)sulfonyl]hydrazine-1-carboxamide] | 6.00 to 6.30 |
| CC(NC(=O)NNS(=O)(=O)c1cccc(C(F)(F)F)c1)(C(F)(F)F)C(F)(F)F [Example 19] | 6.00 to 6.30 |
| COc1ccc(S(=O)(=O)NNC(=O)NC(C)(C(F)(F)F)C(F)(F)F)c(OC)c1 [Example 20, N-2-(1,1,1,3,3,3-Hexafluoro-2-methylpropyl)-2-[(2,4-dimethoxyphenyl)sulfonyl] hydrazine-1-carboxamide] | 6.00 to 6.30 |

| SMILES | pEC50 |
| --- | --- |
| Cc1cccc(S(=O)(=O)NNC(=O)NC(C)(C(F)(F)F)C(F)(F)F)c1 [Example 22, N-2-(1,1,1,3,3,3-Hexafluoro-2-methylpropyl)-2-[(3-methylphenyl)sulfonyl]hydrazine-1-carboxamide] | 6.00 to 6.30 |
| CC(NC(=O)NNS(=O)(=O)c1ccc(C(F)(F)F)cc1)(C(F)(F)F)C(F)(F)F [Example 23, N-2-(1,1,1,3,3,3-Hexafluoro-2-methylpropyl)-2-[(4-trifluoromethylphenyl)sulfonyl] hydrazine-1-carboxamide] | 6.00 to 6.30 |
| CC(NC(=O)NNS(=O)(=O)c1ccccc1C(F)(F)F)(C(F)(F)F)C(F)(F)F [Example 24, N-2-(1,1,1,3,3,3-Hexafluoro-2-methylpropyl)-2-[(2-trifluoromethylphenyl)sulfonyl] hydrazine-1-carboxamide] | 5.30 to 6.00 |
| CC(NC(=O)NNS(=O)(=O)c1ccc(S(=O)(=O)N2CCCC2)cc1)(C(F)(F)F)C(F)(F)F [Example 25, N-2-(1,1,1,3,3,3-Hexafluoro-2-methylpropyl)-2-[4-(pyrrolidin-1-sulfonyl)phenylsulfonyl]hydrazine-1-carboxamide] | 5.30 to 6.00 |
| CC(NC(=O)NNS(=O)(=O)c1ccccc1Cl)(C(F)(F)F)C(F)(F)F [Example 26, N-2-(1,1,1,3,3,3-Hexafluoro-2-methylpropyl)-2-[(2-chlorophenyl)sulfonyl]hydrazine-1-carboxamide] | 5.30 to 6.00 |
| CC(NC(=O)NNS(=O)(=O)c1ccc(N2CCOCC2)nc1)(C(F)(F)F)C(F)(F)F [Example 27, N-2-(1,1,1,3,3,3-Hexafluoro-2-methylpropyl)-2-(2-(5-morpholin-4-yl)pyridylsulfonyl]hydrazine-1-carboxamide] | 5.30 to 6.00 |
| CC(NC(=O)NNS(=O)(=O)c1ccccc1OC(F)(F)F)(C(F)(F)F)C(F)(F)F [Example 28, N-2-(1,1,1,3,3,3-Hexafluoro-2-methylpropyl)-2-[(2-trifluoromethoxyphenyl)sulfonyl] hydrazine-1-carboxamide] | 5.30 to 6.00 |
| CC(NC(=O)NNS(=O)(=O)c1ccc(Cl)cc1Cl)(C(F)(F)F)C(F)(F)F [Example 29, N-2-(1,1,1,3,3,3-Hexafluoro-2-methylpropyl)-2-[(2,4-dichlorophenyl)sulfonyl]hydrazine-1-carboxamide] | 5.30 to 6.00 |
| CC(NC(=O)NNS(=O)(=O)c1ccccc1)(C(F)(F)F)C(F)(F)F [Example 30, N-2-(1,1,1,3,3,3-Hexafluoro-2-methylpropyl)-2-[phenylsulfonyl]hydrazine-1-carboxamide] | 5.30 to 6.00 |
| CC(NC(=O)NNS(=O)(=O)c1cccc(OC(F)F)c1)(C(F)(F)F)C(F)(F)F [Example 31, N-2-(1,1,1,3,3,3-Hexafluoro-2-methylpropyl)-2-[(3-difluoromethoxyphenyl)sulfonyl] hydrazine-1-carboxamide] | 5.30 to 6.00 |
| CC(NC(=O)NNS(=O)(=O)c1cccc(C#N)c1)(C(F)(F)F)C(F)(F)F [Example 32, N-2-(1,1,1,3,3,3-Hexafluoro-2-methylpropyl)-2-[(3-cyanophenyl)sulfonyl]hydrazine-1-carboxamide] | 5.30 to 6.00 |
| CC(NC(=O)NNS(=O)(=O)c1ccc(C#N)cc1)(C(F)(F)F)C(F)(F)F [Example 33, N-2-(1,1,1,3,3,3-Hexafluoro-2-methylpropyl)-2-[(4-cyanophenyl)sulfonyl]hydrazine-1-carboxamide] | 5.30 to 6.00 |
| CC(NC(=O)NNS(=O)(=O)c1cccc2c1OCCO2)(C(F)(F)F)C(F)(F)F [Example 34, N-2-(1,1,1,3,3,3-Hexafluoro-2-methylpropyl)-2-[5-(2,3-dihydrobenzo[1,4]dioxinyl)sulfonyl]hydrazine-1-carboxamide] | 5.30 to 6.00 |
| Cc1ccc(S(=O)(=O)NN(C)C(=O)NC(C)(C(F)(F)F)C(F)(F)F)cc1 [Example 35] | 5.30 to 6.00 |
| CC(NC(=O)NNS(=O)(=O)c1cccc(F)c1)(C(F)(F)F)C(F)(F)F [Example 36, N-2-(1,1,1,3,3,3-Hexafluoro-2-methylpropyl)-2-[(3-fluorophenyl)sulfonyl]hydrazine-1-carboxamide] | 5.30 to 6.00 |
| CC(NC(=O)NNS(=O)(=O)c1ccc(F)c(F)c1)(C(F)(F)F)C(F)(F)F [Example 37, N-2-(1,1,1,3,3,3-Hexafluoro-2-methylpropyl)-2-[(3,4-difluorophenyl)sulfonyl]hydrazine-1-carboxamide] | 5.30 to 6.00 |
| Cc1nc(C)c(S(=O)(=O)NNC(=O)NC(C)(C(F)(F)F)C(F)(F)F)s1 [Example 38, N-2-(1,1,1,3,3,3-Hexafluoro-2-methylpropyl)-2-[(2,4-dimethylthiazol-5-yl)sulfonyl]hydrazine-1-carboxamide] | 5.30 to 6.00 |
| CC(NC(=O)NNS(=O)(=O)c1c(F)cccc1F)(C(F)(F)F)C(F)(F)F [Example 40, N-2-(1,1,1,3,3,3-Hexafluoro-2-methylpropyl)-2-[(2,6-difluorophenyl)sulfonyl]hydrazine-1-carboxamide] | 5.30 to 6.00 |
| CC(NC(=O)NNS(=O)(=O)c1ccccc1F)(C(F)(F)F)C(F)(F)F [Example 41, N-2-(1,1,1,3,3,3-Hexafluoro-2-methylpropyl)-2-[(2-fluorophenyl)sulfonyl]hydrazine-1-carboxamide] | 5.30 to 6.00 |
